Measurements from US20240150377A1, “MODULATORS OF CYSTIC FIBROSIS TRANSMEMBRANE CONDUCTANCE REGULATOR” (VERTEX PHARMACEUTICALS INCORPORATED, priority 2020, published 2024).
Read-outs that look alike come from different tables or passages of the source.

Molecular target: T1, CFTR (Homo sapiens, UniProt P13569, DEL508-508)
T1 construct: endogenous in cells; host or cells: primary human bronchial epithelial cells from CF subjects (F508del/MF-HBE), differentiated at air-liquid interface
Experiment: HBE assay: Ussing chamber assay of CFTR-mediated short-circuit currents
Type: cell-based
Conditions: for EC50: read-out: HBE EC50
Summary of the method: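 CFTR-mediated Isc (μA/cm²) equals the peak response to apical 20 μM forskolin minus the residual after a 20 μM each BPO/GlyH-101/CFTR inhibitor 172 cocktail, recorded in Ussing chambers at Vhold 0 mV, 37 °C, pH 7.4, with 30 μM apical amiloride. Cells were F508del/MF HBE cultures preincubated 18-24 h with corrector (concentration range or 10 μM) plus 1 μM ivacaftor in 20% human serum.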

[1] = Table 12, read-out: HBE Max Activity (%)
[2] = Table 12, read-out: HBE Activity at 10 μM (%)
[3] = Table 11, read-out: HBE Max Activity (%)
[4] = Table 10, read-out: HBE activity at 10 (μM) (%)

T1 sequence (P13569 with tags, fused parts or gaps DEL508-508): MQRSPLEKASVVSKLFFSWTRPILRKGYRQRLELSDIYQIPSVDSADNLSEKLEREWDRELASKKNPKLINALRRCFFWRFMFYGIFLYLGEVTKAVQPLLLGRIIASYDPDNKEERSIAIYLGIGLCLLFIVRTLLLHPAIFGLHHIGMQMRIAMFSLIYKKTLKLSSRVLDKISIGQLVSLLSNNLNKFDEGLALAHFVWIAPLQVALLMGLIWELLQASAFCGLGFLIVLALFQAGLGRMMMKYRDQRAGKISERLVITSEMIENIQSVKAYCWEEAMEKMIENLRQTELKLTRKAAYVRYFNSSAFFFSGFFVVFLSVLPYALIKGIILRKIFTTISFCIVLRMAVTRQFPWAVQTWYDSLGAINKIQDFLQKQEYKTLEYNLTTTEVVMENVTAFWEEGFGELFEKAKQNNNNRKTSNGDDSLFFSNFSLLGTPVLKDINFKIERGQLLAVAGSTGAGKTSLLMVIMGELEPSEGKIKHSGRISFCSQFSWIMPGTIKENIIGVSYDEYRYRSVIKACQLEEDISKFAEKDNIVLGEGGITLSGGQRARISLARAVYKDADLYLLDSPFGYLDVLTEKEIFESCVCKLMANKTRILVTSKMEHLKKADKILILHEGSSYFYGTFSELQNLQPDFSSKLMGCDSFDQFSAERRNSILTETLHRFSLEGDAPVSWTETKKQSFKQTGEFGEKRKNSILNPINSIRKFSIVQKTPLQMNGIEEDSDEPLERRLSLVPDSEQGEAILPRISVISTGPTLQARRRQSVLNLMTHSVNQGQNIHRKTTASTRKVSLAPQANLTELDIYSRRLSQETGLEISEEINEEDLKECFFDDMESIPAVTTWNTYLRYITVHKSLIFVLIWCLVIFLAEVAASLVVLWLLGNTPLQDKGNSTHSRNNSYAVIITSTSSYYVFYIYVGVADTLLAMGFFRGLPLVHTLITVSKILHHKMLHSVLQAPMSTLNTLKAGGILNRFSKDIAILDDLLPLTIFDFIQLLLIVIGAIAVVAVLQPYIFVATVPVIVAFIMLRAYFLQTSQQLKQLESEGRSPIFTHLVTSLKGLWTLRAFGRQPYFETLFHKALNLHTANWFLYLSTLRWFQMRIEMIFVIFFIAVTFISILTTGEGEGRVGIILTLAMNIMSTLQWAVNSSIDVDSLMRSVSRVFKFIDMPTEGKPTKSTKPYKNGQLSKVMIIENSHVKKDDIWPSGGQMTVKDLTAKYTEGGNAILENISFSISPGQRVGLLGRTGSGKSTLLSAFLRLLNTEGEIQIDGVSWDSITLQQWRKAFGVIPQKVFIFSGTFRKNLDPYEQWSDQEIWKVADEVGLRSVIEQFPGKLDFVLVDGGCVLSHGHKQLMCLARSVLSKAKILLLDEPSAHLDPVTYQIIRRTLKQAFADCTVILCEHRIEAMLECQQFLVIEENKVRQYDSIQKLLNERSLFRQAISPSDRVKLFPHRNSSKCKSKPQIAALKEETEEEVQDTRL

Row | Compound | EC50 (Table 12) [nM] | Emax [1] [%] | activation at 10 µM [2] [%] | also measured
1 | COCC(C)N(C)c1cncc(CN2C(=O)c3cccc(c3)S(=O)(=O)Nc3nc(cc(-c4c(C)cccc4C)n3)OC[C@H]2CC(C)(C)C)n1 (stereo partly drawn) [Compound 444] | < 1000 | > 60 |  | 
2 | Cc1cccc(C)c1-c1cc2nc(n1)NS(=O)(=O)c1cccc(c1)C(=O)N(Cc1nccc(N(C)C3CC4(CCC4)C3)n1)[C@H](CC(C)(C)C)CO2 [Compound 445] | < 1000 | > 60 |  | 
3 | COC[C@@H](C)N(C)c1ccnc(CN2C(=O)c3cccc(c3)S(=O)(=O)Nc3nc(cc(-c4c(C)cccc4C)n3)OC[C@H]2CC(C)(C)C)n1 [Compound 446] | < 1000 | > 60 |  | 
4 | Cc1cccc(C)c1-c1cc2nc(n1)NS(=O)(=O)c1cccc(c1)C(=O)N(Cc1nccc(N(C)C34CC(C3)C4)n1)[C@H](CC(C)(C)C)CO2 [Compound 447] |  |  | > 600 | 
5 | COCC(C)N(C)c1ccnc(CN2C(=O)c3cccc(c3)S(=O)(=O)Nc3nc(cc(-c4c(C)cccc4C)n3)OC[C@H]2CC(C)(C)C)n1 (stereo partly drawn) [Compound 448] |  |  | > 600 | 
6 | Cc1cccc(C)c1-c1cc2nc(n1)NS(=O)(=O)c1cccc(c1)C(=O)N(Cc1cc(C3CCOCC3)[nH]n1)[C@H](CC(C)(C)C)CO2 [Compound 449] |  |  | > 600 | 
7 | Cc1cccc(C)c1-c1cc2nc(n1)NS(=O)(=O)c1cccc(c1)C(=O)N(CC1(C(=O)O)CC1)[C@H](CC(C)(C)C)CO2 [Compound 450] | < 1000 |  | 30 to 60 | 
8 | Cc1cccc(C)c1-c1cc2nc(n1)NS(=O)(=O)c1cccc(c1)C(=O)N(Cc1nccc(N(C)[C@@H]3CCC34CCC4)n1)[C@H](CC(C)(C)C)CO2 [Compound 451] | < 1000 | > 60 |  | 
9 | Cc1cccc(C)c1-c1cc2nc(n1)NS(=O)(=O)c1cccc(c1)C(=O)N(CC(=O)O)[C@H](CC(C)(C)C)CO2 [Compound 453] | 3000 to 30000 | > 60 |  | 
10 | Cc1cccc(C)c1-c1cc2nc(n1)NS(=O)(=O)c1cccc(c1)C(=O)N(Cc1ccn(CC(C)C)n1)[C@H](CC(C)(C)C)CO2 [Compound 454] | < 1000 | > 60 |  | 
11 | Cc1cccc(C)c1-c1cc2nc(n1)NS(=O)(=O)c1cccc(c1)C(=O)N(Cc1cc3n(n1)CCC3)[C@H](CC(C)(C)C)CO2 [Compound 455] |  |  | > 600 | 
12 | Cc1cccc(C)c1-c1cc2nc(n1)NS(=O)(=O)c1cccc(c1)C(=O)N(Cc1cc3n(n1)CCCO3)[C@H](CC(C)(C)C)CO2 [Compound 456] |  |  | > 600 | 
13 | Cc1cccc(C)c1-c1cc2nc(n1)NS(=O)(=O)c1cccc(c1)C(=O)N(Cc1nc(N(C)CC(C)(C)C)ccc1C(F)(F)F)[C@H](CC(C)(C)C)CO2 [Compound 457] | < 1000 | > 60 |  | 
14 | Cc1cccc(C)c1-c1cc2nc(n1)NS(=O)(=O)c1cccc(c1)C(=O)N(Cc1nc(N(C)C(C)C)ccc1C(F)(F)F)[C@H](CC(C)(C)C)CO2 [Compound 458] |  |  | > 600 | 
15 | Cc1cccc(C)c1-c1cc2nc(n1)NS(=O)(=O)c1cccc(c1)C(=O)N(Cc1nccc(N(C)C(C)C)n1)[C@H](CC1CC1)CO2 [Compound 459] | < 1000 | > 60 |  | 
16 | Cc1cccc(C)c1-c1cc2nc(n1)NS(=O)(=O)c1cccc(c1)C(=O)N(Cc1ccn(C3CCCC3)n1)[C@H](CC(C)(C)C)CO2 [Compound 460] | < 1000 | > 60 |  | 
17 | Cc1cccc(C)c1-c1cc2nc(n1)NS(=O)(=O)c1cccc(c1)C(=O)N(Cc1ccn(C3CCC3)n1)[C@H](CC(C)(C)C)CO2 [Compound 461] | < 1000 | > 60 |  | 
18 | Cc1cccc(C)c1-c1cc2nc(n1)NS(=O)(=O)c1cccc(c1)C(=O)N(Cc1ncc(N3CCC(C)(C)CC3)cn1)[C@H](CC1CC1)CO2 [Compound 462] | < 1000 | > 60 |  | 
19 | Cc1cccc(C)c1-c1cc2nc(n1)NS(=O)(=O)c1cccc(c1)C(=O)N(Cc1cccc(N3CCC[C@H]3C)n1)[C@H](CC1CC1)CO2 [Compound 463] | < 1000 | > 60 |  | 
20 | COCCN(C)c1cccc(CCN2C(=O)c3cccc(c3)S(=O)(=O)Nc3nc(cc(-c4c(C)cccc4C)n3)OC[C@H]2CC(C)(C)C)n1 [Compound 464] |  |  |  | EC50 (Table 11): < 1000 nM; Emax [3]: > 60%
21 | Cc1cccc(CN2C(=O)c3cccc(c3)S(=O)(=O)Nc3nc(cc(-c4c(C)cccc4C)n3)OC[C@H]2CC(C)(C)C)n1 [Compound 465] |  |  |  | EC50 (Table 11): < 1000 nM; Emax [3]: > 60%
22 | Cc1cccc(C)c1-c1cc2nc(n1)NS(=O)(=O)c1cccc(c1)C(=O)N(Cc1ccnc(N3CCOCC3)c1)[C@H](CC(C)(C)C)CO2 [Compound 466] |  |  |  | activation at 10 µM [4]: > 60%; Emax (Table 10, read-out: HBE Max activity (%)): > 60%
23 | Cc1cccc(C)c1-c1cc2nc(n1)NS(=O)(=O)c1cccc(c1)C(=O)N(Cc1ccc(C3CCCCC3)c(C)n1)[C@H](CC(C)(C)C)CO2 [Compound 467] |  |  |  | activation at 10 µM [4]: > 60%
